Measurements published in patent US11833144B2, “Treating autoimmune disease” (Mayo Foundation for Medical Education and Research, priority 2020, dated 2023).

What was measured:
Format in all cases: cell-based, mouse
[1] = tested on: LC3-I/LC3-II, p-S6, p-S6K, AID; assay: Immunoblot of LC3-I/LC3-II, p-S6, p-S6K and AID in activated murine B cells
Protocol: For immunoblotting, cells were lysed in lysis buffer with protease and phosphatase inhibitors (Sigma-Aldrich). Protein concentration in samples were quantified by BCA assay (Thermo Fisher Scientific) before loading the samples for electrophoresis and membrane transfer. The transferred membrane was blocked with TBST (0.1% Tween 20) containing 5% BSA for 1 hour at room temperature. The membrane was incubated with primary antibodies overnight including anti-p-S6 (Ser235/Ser236, D57.2.2E; Cell Signaling), anti-p-p70 S6 kinase (Thr389, 108D2; Cell Signaling), anti-p-4E-BP1 (Thr37/46, 236B4; Cell Signaling), anti-LC3α/β (G-4; Santa Cruz); anti-p-ULK1 (Ser757, D706U; Cell Signaling), anti-AID (EK2 5G9; Cell Signaling), anti-β-actin (13E5; Sigma-Aldrich), and anti-SCD2 (H-12; Santa Cruz). Then, the membrane was washed and incubated with the corresponding secondary antibody for subsequent enhanced chemiluminescence (ECL; Thermo Fisher) exposure. The band intensity of all the immunoblot was analyzed by ImageJ software.

activated murine B cells = assay: Seahorse OCR / ECAR in activated murine B cells
Protocol: The bioenergetic activities of the OCR and ECAR were measured using a Seahorse XFe96 Extracellular Flux Analyzed following established protocols (Agilent). Briefly, B cells were seeded at 200,000 cells/well on Cell-Tak (Corning) coated XFe96 plate with fresh XF media (Seahorse XF RPMI medium containing 10 mM glucose, 2 mM L-glutamine, and 1 mM sodium pyruvate, PH 7.4; all reagents from Agilent). OCR was measured in the presence of Oligomycin (1.5 μM; Sigma-Aldrich), FCCP (1.5 μM; Sigma-Aldrich), and Rotenone (1 μM; Sigma-Aldrich)/Antimycin A (1 μM; Sigma-Aldrich) in Mito Stress assay. For ECAR measurement, B cells were seeded in XFe96 plate with fresh Seahorse XF RPMI medium with 2 mM L-glutamine (PH 7.4), and treated with glucose (10 mM; Agilent), Oligomycin (1.5 and 2-DG (50 mM; Sigma-Aldrich) orderly in Glycolysis Stress assay.

Chop, Atf4, Sqstm1 = assay: RT-PCR of ER stress-related genes in activated B cells
Protocol: For mRNA analysis, total mRNA was isolated from mouse and human B cells by RNeasy Micro kit (Qiagen), reverse transcribed from mRNA to cDNA for subsequent real-time PCR analysis. Scd1, Scd2, Fasn, Acaca, Chop, Atf4, Sqstm1 in mouse B cells and Scd, Fasn, Acaca expression in human B cells were measured by real-time PCR with a Bio-Rad Realtime PCR system. β-actin expression was used as control.

murine B cells = assay: Murine B cell proliferation (CellTrace Violet, cell number) and class switch to IgG1 in vitro
Protocol: Mouse B cells were isolated from pooled single cell suspensions of spleen and peripheral lymph nodes using CD19 Microbeads (Miltenyi) or Mouse B cell Isolation Kit (Stemcell Technologies). B cells were stimulated with LPS (10 μg/mL; Sigma-Aldrich) and recombinant IL-4 cytokine (10 ng/mL; Tonbo Bioscience) with or without SCD inhibitor SSI-4, and proliferation was measured by dilution of CellTrace Violet proliferation dye (Thermo Fisher Scientific). B cells were also stimulated with anti-IgM (10 μg/mL; Jackson ImmunoResearch), anti-CD40 (10 μg/mL; BioXcell) and IL-4 (10 ng/mL; Tonbo Bioscience), or TLR ligand CpG (2.5 μM; IDT), recombinant IL-4 and IL-5 (10 ng/mL; Tonbo Bioscience) cytokines. To test the function of monounsaturated and saturated fatty acids, B cells were activated in presence of exogenous fatty acid-BSA conjugate. Palmitoleic acid (NU-CHEK PREP, INC), palmitic acid (NU-CHEK PREP, INC), stearic acid (NU-CHEK PREP, INC) were conjugated with fatty acid free BSA (Sigma-Aldrich) as described elsewhere (Wang et al., Immunity 35:871-882 (2011)). Human B cells were activated with CpG OND2006 (2.5 μM; IDT), recombinant human cytokine IL-10 ([…]; Peprotech), IL-15 (10 ng/mL; Peprotech), IL-4 (10 ng/mL; Biolegend), IL-2 (10 unit/mL) and anti-human CD40 (1 μg/mL; BioXcell). Human B cell proliferation was measured by ^3[H]-thymidine incorporation (1 μCi/mL) (American Radiolabeled Chemicals). For analysis of surface markers, cells were stained in PBS containing 1% (w/v) bovine serum albumin on ice for 30 minutes, with anti-IgG1 (RMG1-1, Biolegend), anti-CD19 (ID3, Biolegend) anti-B220 (RA3-6B2, Biolegend), anti-CD4 (GK1.5, Biolegend), anti-CD8 (53-6.7, Biolegend), anti-CD25 (PC16, Biolegend), anti-GL7 (GL-7, Biolegend), anti-CD95 (Jo2, BD Biosciences), anti-CD138 (281-2, Biolegend), anti-IgD (11-26c.2a, Biolegend), anti-PD-1 (J43, ThermoFisher), anti-IgM (II/41, ThermoFisher). Antigen specific GC response was detected with tetramer NP-phycoerythrin conjugated with PE (Biosearch Technologies). CXCR5 was stained with biotinylated anti-CXCR5 (2G8) followed by staining with streptavidin-conjugated PE (both from BD Biosciences). Cell viability was assessed using the Fixable Dye Ghost 510 (Tonbo Bioscience) or Annexin V cell apoptosis kit with 7-AAD (ThermoFisher) following the manufacturer's protocol. Phosflow staining for phospho-S6 (S235/236) was performed using Phosflow Fix/Perm kit (BD Biosciences). Mitochondrial potential was measured by staining with 20 nM TMRM (ThermoFisher) following manufacturer's instructions. Flow cytometry was performed on the LSR II, LSR Fortessa (BD Biosciences) or Attune NxT (ThermoFisher) cytometers, and analysis was performed using FlowJo software (Tree Star).

[2] = LPS/IL-4 activated, fatty acid-BSA conjugate, no inhibitor

SMILES	levels of p-S6K and p-S6 with exogenous OA ([1]; SSI-4 treated or SCD1/2 deficient B cells plus OA)	increased LC3-II/LC3-I ratio with exogenous OA ([1]; SSI-4 treated or SCD deficient B cells plus OA)	OA mediated increase of basal respiration with titrated doses (activated murine B cells; exogenous OA 1, 10, 20 and 50)	glycolytic capacity of activated murine B cells (activated murine B cells; exogenous fatty acid, 48 h, Glycolysis Stress test)	B cell respiration (OCR) (activated murine B cells; exogenous fatty acid, 48 h, CpG/IL-4/IL-5 (PO: CpG and anti-IgM/anti-CD40) stimulation)	ER stress-related gene upregulation with exogenous OA (Chop, Atf4, Sqstm1; SSI-4 plus OA)	rescue of proliferation defects caused by SCD inhibition (murine B cells; 100 nM SSI-4 plus exogenous 100 μM OA, 3 days, LPS/IL-4/IL-5, anti-IgM/anti-CD40/IL-4 or CpG/IL-4/IL-5)	rescue of proliferation and IgG1 class switch in SCD1/2 deficient B cells (murine B cells; B cells from Scd1 and Scd2 deficient mice, LPS/IL-4)	rescue of proliferation and IgG1 class switch upon SSI-4 treatment (murine B cells; LPS/IL-4, SSI-4 with exogenous fatty acid)	B cell proliferation, exogenous fatty acid alone (murine B cells; [2])	IgG1 class switch, exogenous fatty acid alone (murine B cells; [2])	levels of p-S6K and p-S6 ([1]; SSI-4 treated B cells)	LC3-II/LC3-I ratio ([1]; SSI-4 treated B cells vs control cells)	expression of activation-induced cytidine deaminase (AID) ([1]; SSI-4 treatment)	B cell glycolysis (ECAR) under SCD inhibition (activated murine B cells; SSI-4, 48 hours)	B cell respiration (OCR) under SCD inhibition (activated murine B cells; SSI-4, 48 hours)	ER stress-related genes Chop, Atf4, Sqstm1 (Chop, Atf4, Sqstm1; SSI-4 treatment)	IgG1 class switch (murine B cells; LPS/IL-4, SCD inhibitor SSI-4 alone)	proliferation of mouse B cells (CTV dilution) (murine B cells; LPS/IL-4 activated, SCD inhibitor alone)
CCCCCCCC/C=C\CCCCCCCC(=O)O [OA, oleic acid]	restored	completely rescued	dose dependent	increased the glycolytic capacity	enhanced B cell respiration	reduced these genes upregulation	able to rescue the proliferation defects	fully restored	fully restore both parameters	further enhanced	further enhanced	–	–	–	–	–	–	–	–
CNC(=O)c1ccnc(NC(=O)N2CCC(Oc3ccccc3Cl)CC2)c1 [SSI-4, 2-{[4-(2-Chlorophenoxy)piperidine-1-carbonyl]amino}-N-methylpyridine-4-carboxamide]	–	–	–	–	–	–	–	–	–	–	–	decreased	substantial increase	Reduced expression	strongly suppressed	strongly suppressed	increased	strongly suppressed	capable of inhibiting B cell proliferation
